US8476197B2, “Aminopropenoates as fungicides” (priority 2009, dated 2013)
Marks after values point to notes of the source that are not given here.

conditions: pH 2.3

Structure (SMILES)	Log P
CCOC(=O)C(C#N)=C(NC(C)C(C)C)c1cccnc1-c1ccc(Cl)cc1 (stereo not shown) [Compound 974]	4.09
CCOC(=O)C(C#N)=C(NC1CC1)c1cccnc1Cl [Compound 764]	2.5
CC(C)C(C)NC(=C(C#N)C(=O)NC1CC1)c1cccnc1Cl (stereo not shown) [Compound 1451]	2.74
CCOC(=O)C(C#N)=C(Nc1cccc(F)c1F)c1cccnc1Cl [Compound 1604]	3
CON(C)C(=O)C(C#N)=C(NC(C)C(C)C)c1cccnc1Cl (stereo not shown) [Compound 1246]	2.68

same assay, conditions: pH 2.7

Structure (SMILES)	Log P
CC#CC(C)(C)NC(=C(C#N)C(=O)OC)c1cccnc1Cl [Compound 1039]	2.57^[a]
COC(=O)C(C#N)=C(NCc1nccs1)c1cn(C)nc1C(F)F [Compound 67]	1.72^[a]
COC(=O)C(C#N)=C(NC1C(C)CCCC1C)c1cccnc1Cl (stereo not shown) [Compound 1058]	3.63^[a]
CCOC(=O)C(C#N)=C(Nc1ccc(SC)cc1)c1cccnc1Cl [Compound 1170]	3.37^[a]
COC(=O)C(C#N)=C(NC(c1cc2ccccc2s1)C(F)(F)F)c1cn(C)nc1C(F)F (racemic) [Compound 60]	3.83^[a]
CCOC(=O)C(C#N)=C(NC(C)COc1c(C)cccc1C)c1sccc1C(F)(F)F (racemic) [Compound 654]	4.89^[a]
CCOC(=O)C(C#N)=C(NC(C)CC(C)C)c1sc(C)nc1C(F)(F)F (racemic) [Compound 784]	4.29^[a]
CCOC(=O)C(C#N)=C(Nc1ccc(Cl)cc1)c1sc(C)nc1C(F)(F)F [Compound 512]	3.92^[a]
CCOC(=O)C(C#N)=C(NC1CCCCNC1=O)c1cc(C)oc1C (stereo not shown) [Compound 119]	2.14^[a]
C=CCCCC(C=C)NC(=C(C#N)C(=O)OCC)c1ccsc1Br (racemic) [Compound 1018]	4.67^[a]
COC(=O)C(C#N)=C(NC(C)c1ccc(OC)cc1)c1cccnc1Cl (stereo not shown) [Compound 408]	2.65^[a]
C=CCNC(=O)C(C#N)=C(NC(C)c1nccs1)c1cn(C)nc1C(F)F (racemic) [Compound 1292]	2.2^[a]
CCOC(=O)C(C#N)=C(NCc1nc2ccccc2s1)c1sccc1C(F)(F)F [Compound 176]	3.67^[a]
CCOC(=O)C(C#N)=C(NC(C)C1CC1)c1ccncc1F (racemic) [Compound 904]	2.8^[a]
CCOC(=O)C(C#N)=C(NC(C)c1nccs1)c1c(C(F)(F)F)nn(C)c1Cl (stereo not shown) [Compound 311]	3.2^[a]
CCOC(=O)C(C#N)=C(NC(C)c1ccc(Cl)cc1)c1c(C)nn(C)c1Cl (stereo not shown) [Compound 367]	3.8^[a]
CCOC(=O)C(C#N)=C(NC(C)C(=O)OCC)c1sccc1C(F)(F)F (racemic) [Compound 656]	3.44^[a]
CCOC(=O)C(C#N)=C(NC(C)COc1ccccc1C)c1cccnc1Cl (stereo not shown) [Compound 1155]	4.01^[a]
CCOC(=O)C(C#N)=C(Nc1ccccc1SC)c1c(C)nn(C)c1F [Compound 354]	3.21^[a]
CCOC(=O)C(C#N)=C(Nc1ccncc1C)c1cccnc1Cl [Compound 293]	1.45^[a]
CCOC(=O)C(C#N)=C(NC(C(=O)NC)c1ccccc1)c1cccnc1Cl (stereo not shown) [Compound 1087]	2.43^[a]
CCOC(=O)C(C#N)=C(NC(C)C(C)C)c1ccnc(Br)c1Cl (stereo not shown) [Compound 1209]	3.94^[a]

Structure (SMILES)	Log P
CCOC(=O)C(C#N)=C(NC(C)c1ccccn1)c1scnc1Cl (stereo not shown) [Compound 1462]	2.59^[a]
CCOC(=O)C(C#N)=C(NC(C)c1ccccn1)c1ccnn1C(F)F (stereo not shown) [Compound 1646]	2.55^[a]
CCOCC(COCC)NC(=C(C#N)C(=O)OCC)c1cccnc1Cl [Compound 1376]	3.33^[a]
CCOC(=O)C(C#N)=C(NC(C)C(C)(C)C)c1sccc1Br (racemic) [Compound 921]	4.41^[a]
COC(=O)C(C#N)=C(NC1CSC1)c1cccnc1Cl [Compound 122]	2.08^[a]
CCOC(=O)C(C#N)=C(NC(C)C1CCCO1)c1cccnc1Cl (stereo not shown) [Compound 1531]	2.71^[a]
CCOC(=O)/C(C#N)=C(\NCC(C)N)c1sc(C)nc1C(F)(F)F (stereo not shown) [Compound 643]	1.11^[a]
CCOC(=O)C(C#N)=C(NC1CCC1)c1ccncc1C(F)(F)F [Compound 805]	3.6^[a]
CCOC(=O)C(C#N)=C(NC(C)(C)CSC)c1sccc1Br [Compound 701]	3.73^[a]
CCOC(=O)C(C#N)=C(NCc1nccs1)c1cccnc1Cl [Compound 66]	2.07^[a]
CCOC(=O)C(C#N)=C(NC(C)c1nccs1)c1ccsc1I (racemic) [Compound 158]	3.08^[a]
CCOC(=O)C(C#N)=C(NC(C)c1cccc(Cl)c1)c1cccnc1Cl (stereo not shown) [Compound 1152]	3.83^[a]
CCOC(=O)C(C#N)=C(NCc1ccc2ccccc2n1)c1cccnc1Cl [Compound 323]	3.13^[a]
CCOC(=O)C(C#N)=C(NC(C)Cc1c[nH]c2ccccc12)c1nsc(Cl)c1Cl (racemic) [Compound 54]	4.1^[a]
CCOC(=O)C(C#N)=C(NC(C)C(C)C)c1cnccc1C(F)(F)F (stereo not shown) [Compound 982]	3.5^[a]
CCOC(=O)C(C#N)=C(NC(C)(C)c1ccccc1)c1cn(C)nc1C(F)F [Compound 551]	3.33^[a]
CCOC(=O)C(C#N)=C(NC1CC2CCC1C2)c1cccnc1Cl (stereo not shown) [Compound 1081]	3.7^[a]
CCOC(=O)C(C#N)=C(NC1CC1(C)C)c1cn(C)nc1C(F)F (stereo not shown) [Compound 1148]	3^[a]
CCOC(=O)C(C#N)=C(NC(C)(C)C(=O)OC)c1cn(C)nc1C(F)F [Compound 696]	2.51^[a]
CCOC(=O)C(C#N)=C(NC(Cc1ncccc1C)C(F)(F)F)c1cn(C)nc1C(F)F (stereo not shown) [Compound 1223]	2.94^[a]
CCOC(=O)C(C#N)=C(NC(C)c1ccc(Cl)cc1)c1ccnc(Cl)c1Cl (racemic) [Compound 544]	4.21^[a]
CCOC(=O)C(C#N)=C(NC(C)CF)c1ccncc1Cl (stereo not shown) [Compound 750]	2.42^[a]

Structure (SMILES)	Log P
CCOC(=O)C(C#N)=C(NC1(C)CCC1)c1cccnc1Cl [Compound 1607]	3.11^[a]
CCOC(=O)C(C#N)=C(NC(C)COC)c1ccsc1Br (stereo not shown) [Compound 714]	3.21^[a]
CCOC(=O)C(C#N)=C(NC(C)C(C)C)c1cn(C)nc1C(F)F (stereo not shown) [Compound 933]	3.13^[a]
CCOC(=O)C(C#N)=C(NC(C)Cn1cccn1)c1cccnc1Cl (racemic) [Compound 278]	2.23^[a]
CCOC(=O)C(C#N)=C(NC(C)C(C)C)c1ccnc(Cl)c1F (stereo not shown) [Compound 1311]	3.81^[a]
CCOC(=O)C(C#N)=C(NC(C)C(=O)CC)c1cccnc1Cl (racemic) [Compound 1270]	2.64^[a]
CCOC(=O)C(C#N)=C(NC(C)CN(C)C)c1c(C)nn(C)c1Cl (stereo not shown) [Compound 605]	1.13^[a]
CCOC(=O)C(C#N)=C(NC(C)CC)c1sccc1Br (stereo not shown) [Compound 827]	3.76^[a]
CC(NC(=C(C#N)C(=O)NCCF)c1cccnc1Cl)c1nccs1 (racemic) [Compound 1563]	2^[a]
CCC(NC(=C(C#N)C(=O)OC)c1cccnc1Cl)c1ccccc1OC (stereo not shown) [Compound 391]	3.15^[a]
CCOC(=O)C(C#N)=C(NC1CCC1)c1ncc(Cl)cc1Cl [Compound 795]	3.67^[a]
CCOC(=O)C(C#N)=C(Nc1ccc(N(C)C)cc1)c1ccsc1Br [Compound 540]	3.76^[a]
CCOC(=O)C(C#N)=C(Nc1ccccc1OC(C)C)c1sc(C)nc1C(F)(F)F [Compound 519]	4.36^[a]
COC(=O)C(C#N)=C(NCc1ccccn1)c1sc(C)nc1C(F)(F)F [Compound 134]	2.37^[a]
COC(=O)C(C#N)=C(NC(C)c1ccc(F)cc1)c1sc(C)nc1C(F)(F)F (mixture of isomers) [Compound 442]	3.64^[a]
CCOC(=O)C(C#N)=C(NC(C)c1nc(C(F)(F)F)no1)c1cc(Cl)ncc1Cl (racemic) [Compound 254]	3.83^[a]
CCOC(=O)C(C#N)=C(NC1CCC1)c1cc(Cl)sc1Cl [Compound 1581]	4.26^[a]
COC(=O)C(C#N)=C(NC1(c2ccc(Cl)cc2)CC1)c1cccnc1Cl [Compound 384]	3.19^[a]
CCOC(=O)C(C#N)=C(NCc1ccccn1)c1cn(C)nc1C(F)F [Compound 32]	1.94^[a]
CCOC(=O)C(C#N)=C(NC(C)C(=O)NC)c1sccc1Cl (stereo not shown) [Compound 645]	2.08^[a]
COC(=O)C(C#N)=C(NC(C)c1ccc(Cl)cc1)c1sc(C)nc1C(F)(F)F (stereo not shown) [Compound 427]	3.98^[a]

same assay, conditions: pH 7.5

Structure (SMILES)	Log P
CCOC(=O)C(C#N)=C(NC(C)C(C)C)c1cccnc1-c1ccc(Cl)cc1 (stereo not shown) [Compound 974]	4.08
CCOC(=O)C(C#N)=C(NC(C)C1CC1)c1ccc(Cl)nc1Cl (mixture of isomers) [Compound 914]	3.54
COC(=O)C(C#N)=C(NC(C(N)=O)C(C)C)c1cccnc1Cl (stereo not shown) [Compound 572]	1.58
COC(=O)C(C#N)=C(N[C@H](C)C1CCCCC1)c1cccnc1Cl [Compound 871]	3.76
CCOC(=O)C(C#N)=C(NC1CC1)c1cccnc1Cl [Compound 764]	2.36
CC(C)C(C)NC(=C(C#N)C(=O)NC1CC1)c1cccnc1Cl (stereo not shown) [Compound 1451]	2.76
CCOC(=O)C(C#N)=C(NC(C)c1nccs1)c1cccnc1C (racemic) [Compound 152]	2.17
CCOC(=O)C(C#N)=C(Nc1cccc(F)c1F)c1cccnc1Cl [Compound 1604]	2.88
CON(C)C(=O)C(C#N)=C(NC(C)C(C)C)c1cccnc1Cl (stereo not shown) [Compound 1246]	2.67
